Data as given in the NIST ThermoML archive (doi:10.1016/j.jct.2008.11.012).

Assay: xn = mol fraction of the nth substance listed
Settings: 101 kPa, Liquid; for viscosity: Concentric cylinders viscometry; for mass density: Vibrating tube method

NCCNCCN [di(2-aminoethyl)amine] + O
Settings	mass density, 293.15 K [kg/m3]	mass density, 303.15 K [kg/m3]	mass density, 313.15 K [kg/m3]	mass density, 323.15 K [kg/m3]	viscosity, 293.15 K [mPa·s]	viscosity, 303.15 K [mPa·s]	viscosity, 313.15 K [mPa·s]	viscosity, 323.15 K [mPa·s]
x1 = 0.0095	1001.5	998.6	994.9	990.5	1.31	1.017	0.8263	0.6854
x1 = 0.0299	1004.2	1000.7	996.7	991.7	2.076	1.557	1.223	0.9871
x1 = 0.0565	1011.5	1007.1	1002.2	996.8	4.009	2.841	2.101	1.615
x1 = 0.0696	1014.5	1009.6	1004.3	998.6	5.418	3.736	2.684	2.012
x1 = 0.1043	1023.8	1017.1	1010.7	1004.2	11.63	7.329	4.877	3.423
x1 = 0.125	1026.5	1019.8	1012.9	1005.7	17.94	10.57	6.69	4.514
x1 = 0.1591	1030.7	1023	1015.4	1007.9	31.07	16.94	10.13	6.505
x1 = 0.2076	1029.4	1021.4	1013.2	1004.8	50.68	25.63	14.34	8.733
x1 = 0.2449	1027.5	1018.6	1009.9	1001.9	59.62	29.47	16.2	9.728
x1 = 0.3099	1019.1	1010.2	1001.5	993.1	59.42	29.55	16.32	9.836
x1 = 0.3438	1014.1	1005.7	997.1	988.4	55.52	27.97	15.61	9.492
x1 = 0.4112	1004.1	995	986.4	978	43.08	22.7	12.99	8.14
x1 = 0.4974	992.8	983.7	975.1	966.8	30.13	16.77	10.17	6.622
x1 = 0.6111	979	970.6	962.1	953.7	19.46	11.54	7.375	5.032
x1 = 0.6988	971.8	962.7	954.2	945.9	15.12	9.116	5.944	4.175
x1 = 0.8073	963.4	954.3	947.3	939.1	10.61	6.899	4.741	3.445
x1 = 0.8954	957.5	948.4	939.8	931.5	8.515	5.713	4.017	2.976
x1 = 1	951	942.3	933.8	925.5	7.038	4.804	3.4	2.695
